Experimental data from patent publication US20160184322A1 (priority 2013, published 2016).
Read-outs that look alike come from different tables or passages of the source.

Key:
[1] = tested on: SH-SY5Y cells; assay: LDH release after t-BOOH-induced oxidative stress; assay type: cell-based; conditions: 25 μM t-BOOH 6 hours, 24 hours pre-treatment 1-80 μM; for LDH release following exposure to oxidative stress, group differences: ANOVA p=0.214
[2] = tested on: rodents following injury; conditions: cited from earlier work; for most beneficial concentration for reducing edema, inflammation, oxidative stress and cell death within the penumbral region: IP, moderate to severe TBI model, 72 hours following injury
[3] = males; cited from earlier work
[4] = tested on: severe TBI patients; conditions: six months; cited from earlier work
[5] = tested on: moderate to severe TBI patients; conditions: cited from earlier work
[6] = tested on: rats suffering from TBI; conditions: cited from earlier work; for brain water content (measure of edema): 72 hours post-injury, ent-Prog 16 mg/kg
[7] = tested on: glutathione reductase; assay: Glutathione reductase assay in rat model of mTBI (three repeated impacts); assay type: in vivo, Sprague Dawley rats; conditions: 16 mg/kg intraperitoneal 15 minutes after last impact; tissue 24 hours after drug; one-way ANOVA p=0.675
Text: Glutathione reductase assay was used to measure the antioxidant capacity of PRV-001. Glutathione reductase (GR) is an enzyme which catalyzes the reduction of glutathione (GSSR) to reduced glutathione (GSH). GSH is an important intracellular antioxidant that reacts with oxygen free radicals which are harmful to the cell. High GSH to GSSR ratio is important to cellular survival and GR catalyzes the reduction, therefore becoming an important indicator of antioxidant capacity.
Sprague Dawley rats were obtained from Charles River Laboratories and subjected to three repeated impacts spaced 20 minutes apart. Prior to surgery, animals were anesthetized via inhalation with an initial induction with 5% isofluorane with oxygen at a rate of […] a Matrix 3000 Isofluorane Vaporizer (Midmark, Versailles, Ohio). […] The animal's scalp was shaved and cleaned with a 70% isopropanol solution and 10% betadine solution (Med-Vet International, Mettawa, Ill.). During the surgery, anesthesia was maintained at 2.5% isofluorane with oxygen at a rate of 500-1000 mL/min. The animal's head was then secured in a stereotaxic apparatus (David Kopf Instruments, Tujanga, Calif.) and a medial incision was performed and the scalp pulled back with bulldogs clips over the right frontal and parietal bone. […]

[8] = tested on: rats that have suffered a concussion; assay: Morris Water Maze latency to platform in mTBI (concussion) model (FIG. 8); assay type: in vivo, rat; conditions: vs vehicle-injured rats
[9] = tested on: SH-SY5Y cells; assay: Lactate dehydrogenase release after oxygen and glucose deprivation (OGD); assay type: cell-based; conditions: for most effective concentrations to attenuate OGD-induced LDH release: both the 0 and 24 hour post-OGD time points
[10] = target: T1, classical progesterone receptor (PR) (Homo sapiens, UniProt P06401); conditions: cited from earlier work
T1 sequence (P06401 1-933): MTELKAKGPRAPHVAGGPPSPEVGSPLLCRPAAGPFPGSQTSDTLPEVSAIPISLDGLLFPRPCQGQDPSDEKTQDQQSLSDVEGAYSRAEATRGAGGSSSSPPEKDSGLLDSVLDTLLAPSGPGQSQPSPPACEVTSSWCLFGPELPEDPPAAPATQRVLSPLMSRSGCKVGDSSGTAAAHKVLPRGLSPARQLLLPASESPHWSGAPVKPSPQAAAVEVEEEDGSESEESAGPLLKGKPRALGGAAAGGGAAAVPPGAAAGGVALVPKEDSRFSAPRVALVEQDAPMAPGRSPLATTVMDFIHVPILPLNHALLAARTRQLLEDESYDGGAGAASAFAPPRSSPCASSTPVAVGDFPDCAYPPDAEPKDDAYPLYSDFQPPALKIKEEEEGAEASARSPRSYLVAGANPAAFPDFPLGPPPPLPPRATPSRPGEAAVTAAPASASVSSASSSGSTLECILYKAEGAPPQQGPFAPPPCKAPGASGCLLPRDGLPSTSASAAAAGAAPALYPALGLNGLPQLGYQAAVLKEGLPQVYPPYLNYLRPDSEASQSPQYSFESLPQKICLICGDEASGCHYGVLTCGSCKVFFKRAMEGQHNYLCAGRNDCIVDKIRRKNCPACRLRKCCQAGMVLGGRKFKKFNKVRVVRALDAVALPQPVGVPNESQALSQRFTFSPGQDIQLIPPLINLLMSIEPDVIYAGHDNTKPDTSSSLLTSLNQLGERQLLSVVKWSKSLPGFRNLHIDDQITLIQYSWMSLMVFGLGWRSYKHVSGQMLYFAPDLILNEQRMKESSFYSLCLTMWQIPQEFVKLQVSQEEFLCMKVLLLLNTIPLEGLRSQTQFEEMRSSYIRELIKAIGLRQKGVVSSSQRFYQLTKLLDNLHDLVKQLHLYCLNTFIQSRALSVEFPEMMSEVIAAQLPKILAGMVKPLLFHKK

[11] = tested on: glutathione reductase; conditions: 72 hours post-injury, compared to all other groups, p<0.01; cited from earlier work

SMILES: CC(=O)[C@H]1CC[C@H]2[C@@H]3CCC4=CC(=O)CC[C@]4(C)[C@H]3CC[C@]12C [Prog, progesterone]
- oxidative stress-induced cellular damage and death (LDH release), trend [1]: trend towards amelioration
- LDH release following exposure to oxidative stress, group differences [1]: significant group differences were not observed
- most beneficial concentration for reducing edema, inflammation, oxidative stress and cell death within the penumbral region [2]: 16 mg/kg
- edema ([2]; both rodent sexes following injury): effectively attenuates
- inflammatory factors (TNF-a and IL-10) ([2]; following injury): inhibiting
- presence of factors of cell death (caspase-3) and gliosis (GFAP) ([2]; following injury): decreased
- Neurological Severity Score (motor and cognitive functioning) ([2]; rats following injury): significant improvements
- conversion of testosterone to dihydrotestosterone [3]: inhibits
- size of reproductive organs [3]: reduces
- spermatogenesis [3]: suppresses
- neurological outcomes long-term [4]: better neurological outcomes
- 30 days post-injury outcomes (Glasgow Outcome Scale-Extended and Disability Rating Scale) ([5]; moderate TBI patients): better outcomes
- reduction in mortality ([5]; moderate to severe TBI patients, 72 hours of continuous intravenous Prog): 50%
- 30 days post-injury outcomes (Glasgow Outcome Scale-Extended and Disability Rating Scale) ([5]; patients with severe brain injuries): little measurable difference
- brain water content (measure of edema) [6]: normalizes brain water content
- glutathione reductase activity (Δ Absorbance 340 nm/min), difference between groups [7]: failed to reveal a significant difference
- latency to platform (Morris Water Maze) ([8]; post-acutely (15 minutes post)): decreases latency to platform
- latency to platform (Morris Water Maze) ([8]; prophylactically (15 minutes prior)): decreases latency to platform
- LDH release compared to other treated groups [9]: significant reduction
- promoting cellular survival following oxygen and glucose deprivation, PRV-001 compared with progesterone [9]: equally effective
- LDH release compared to other treated groups ([9]; 0 h post-OGD, 1 μM progesterone vs 80 uM progesterone): significant reduction
- LDH release compared to other treated groups ([9]; 0 h post-OGD, 10 μM progesterone vs 80 μM progesterone): significant reduction
- LDH release compared to control cells that did not undergo OGD ([9]; 0 h post-OGD, 20 μM and 80 μM progesterone): significantly higher
- LDH release compared to other treated groups ([9]; 0 h post-OGD, 20 μM progesterone vs 80 μM progesterone): significant reduction
- LDH release compared to control cells not exposed to OGD ([9]; 0 h post-OGD, 1, 5, 10 and 40 μM progesterone): not significantly different
- LDH release compared to untreated cells exposed to OGD ([9]; 0 h post-OGD, all progesterone concentrations except 80 μM): significant reduction
- LDH release compared to control cells not exposed to OGD ([9]; 24 hours post-OGD, 1 μM and 40 μM progesterone): increased
- LDH release compared to other treated groups ([9]; 24 hours post-OGD, 10 μM progesterone vs 40 μM progesterone): significant reduction
- LDH release compared to untreated cells exposed to OGD ([9]; 24 hours post-OGD, 40 μM progesterone): except for those treated with 40 μM progesterone
- LDH release compared to other treated groups ([9]; 24 hours post-OGD, 80 μM progesterone vs 40 μM progesterone): significant reduction
- LDH release compared to control cells not exposed to OGD ([9]; 24 hours post-OGD, 5, 10, 20 and 80 μM progesterone): not significantly different
- LDH release compared to untreated cells exposed to OGD ([9]; 24 hours post-OGD, all progesterone groups except 40 μM): significant reduction
- most effective concentrations to attenuate OGD-induced LDH release [9]: 5 µM and 10 µM

SMILES: CC(=O)[C@@H]1CC[C@@H]2[C@H]3CCC4=CC(=O)CC[C@@]4(C)[C@@H]3CC[C@]21C [ent-Prog, ent-progesterone]
- oxidative stress-induced cellular damage and death (LDH release), trend [1]: trend towards amelioration
- LDH release following exposure to oxidative stress, group differences [1]: significant group differences were not observed
- most beneficial concentration for reducing edema, inflammation, oxidative stress and cell death within the penumbral region [2]: 16 mg/kg
- brain water content (measure of edema) [6]: normalizes brain water content
- reduction of moderate to severe brain injury-induced edema, compared with Prog ([6]; moderate to severe TBI): equal efficacy to Prog
- activation of the classical progesterone receptor (PR) [10]: does not activate
- glutathione reductase activity (Δ Absorbance 340 nm/min), difference between groups [7]: failed to reveal a significant difference
- LDH release compared to control cells that did not undergo OGD [9]: significantly higher
- LDH release compared to other treated groups [9]: significant reduction
- LDH release compared to untreated cells exposed to OGD [9]: significant reduction
- promoting cellular survival following oxygen and glucose deprivation, PRV-001 compared with progesterone [9]: equally effective
- most effective concentrations to attenuate OGD-induced LDH release [9]: 5 µM and 10 µM
- anti-oxidant activity of glutathione reductase [11]: significantly increases

SMILES: CC(=O)[C@H]1CC[C@H]2[C@@H]3CC[C@H]4C[C@H](O)CC[C@]4(C)[C@H]3CC[C@]12C [allopregnanolone]
- presence of factors of cell death (caspase-3) and gliosis (GFAP) ([2]; following injury): decreased
- brain water content (measure of edema) [6]: normalizes brain water content
